Source: US20030047295A1, “Bio-bleaching of pulp using laccase, mediator, and chain transfer agent” (priority 2001, published 2003)

Assay: Pulp bleaching, delignification measured as Kappa number (TAPPI T236 cm-85)
Conditions: for Kappa No.: 2 g pulp, starting Kappa 31
Method: Delignification of the pulp was measured as the change in Kappa number according to the TAPPI method T236 cm-85. A typical procedure is as follows. A known mass of paper pulp (containing lignin) is reacted with an excess of potassium permanganate in an acid solution for a specified period of time to oxidize the lignin. After the reaction, the residual permanganate is determined by titration. The Kappa number is defined as the volume (ml) of 0.1N potassium permanganate consumed by 1 g of moisture-free pulp in 0.5N sulfuric acid after a ten-minute reaction time at 25° C. under conditions such that one-half of the permanganate remains unreacted. A linear relationship with the lignin content of the pulp and the measurement of the Kappa number has already been done on samples as low as 300 mg of pulp.
A softwood Kraft pulp, Kappa number 31.0, was treated with a laccase (NS51003) under the following conditions:
The dried pulp was added to 80 ml of 50 mM phosphate, pH 5.5, and disintegrated in a blender. The pulp was then transferred to a 500 ml conical flask and the blender was washed with 20 ml of the same buffer. The washed buffer and the pulp were combined. The mediator was added at 1-4% (w/w, based on the dry pulp), followed by the addition of the laccase. The pH of the pulp mixture was adjusted to 5.5 if needed. The flask was covered with an aluminum foil with holes punched through and incubated at 50° C. for 16 hrs on a rotary shaker at 200 rpm.
After the enzymatic treatment, the pulp mixture was filtered through a Buchner funnel, and the pulp was washed with water. The pulp from the control experiment was treated at the same pH and temperature as described above.
The washed pulp was then treated with an alkaline solution under the following conditions:
The filtered pulp was repulped in the alkaline solution and incubated at 70° C. for 3 hrs. The pH of the pulp mixture should be between 11.7-12.00 during the entire treatment. After the treatment, the pulp mixture was filtered through a Buchner funnel, and the pulp was washed with water extensively and then dried in a hood overnight.
The delignification of the pulp was measured as a change in Kappa Number according to TAPPI method T236 cm-85.
In this example, we used the typical pulp bleaching experiment as described above. We also used laccase as the enzyme, hardwood black liquor (HWBL) as the mediator, and two chain transfer agents (anthracene and CBr4).

[1] = laccase 100 ul plus HWBL 200 ul as mediator plus chain transfer agent 20 mg

Compound | Kappa number reduction (in words) (0.1 ml of the 51003 laccase with the mediator) | Kappa No. (laccase 100 ul plus mediator (HBT 20 mg or HWBL 200 ul), no chain transfer agent) | Kappa No. [1]
On1nnc2ccccc21 [HBT, 1-hydroxybenzotriazole] | modest Kappa number reduction | 26.1 | 
BrC(Br)(Br)Br [CBr4, carbon tetrabromide] |  |  | 24.4
c1ccc2cc3ccccc3cc2c1 [anthracene] |  |  | 25.4
